According to patent US11806343B2, “Inhibitors of DUX4 induction for regulation of muscle function” (Sonic Master Limited, priority 2017, dated 2023):
Where “and” joins values, the source holds several entries; their conditions need not be identical. Identical values can stand only once. Like-named read-outs stand apart in the source and are kept apart here.

Columns and labels:
Genea049 FSHD hESC-SkM = experiment: FSHD hESC-SkM immunocytochemistry, Myosin Heavy Chain and nuclei (myogenic inhibition/toxicity); assay type: cell-based, human
Description: (§1) FIG. 6 provides an example of a screening and culturing workflow for hESC-SkM assays. At Day 0, hESC-derived myoblasts are thawed into a 96-well plate in myoblast medium (Genea BioCells). On Day 2, the medium is replaced with new myoblast medium containing 1.15 μM. Decitabine. […] On Day 7, the myotubes are analyzed. For example, the myotubes may be analyzed for MHC expression or DUX4 expression.
(§2) Genea049 FSHD-affected human Embryonic Stem Cells (hESCs) were differentiated using Genea's myogenic differentiation protocol (Caron et 2015) to the myoblast stage and cryopreserved. Frozen myoblasts were resuscitated and 4500 cells were plated into each well of a 96-well collagen I coated tissue culture plate in myoblast medium. After two days of cell growth medium was changed to 100 μL per well myoblast medium containing 1.15 μM Decitabine. […] Cells were allowed to differentiate to myotubes for four additional days then were fixed and analyzed for quantification of DUX4 expression, Myosin Heavy Chain expression, and nuclei number. Triplicate wells of each condition were averaged.
as §2, with “et al.,” for “et”, “number by high-content imaging.” for “number.”

DUX4 [1] = experiment: FSHD hESC-SkM immunocytochemistry, DUX4 expression; assay type: cell-based, human
Description: as §1, §2
as §2, with “et al.,” for “et”, “number by high-content imaging.” for “number.”

DUX4 [2] = experiment: DUX4 expression downregulation by kinase family inhibitors (Table 1); assay type: cell-based; details: at the lowest significant concentration; listed as DCC2036
[3] = tested on: 17MB026 primary FSHD-affected patient myotubes; experiment: Live cell imaging of % cell confluence through myotube formation; assay type: cell-based, human; details: 17MB026 primary myotubes, six concentrations, four days of myotube formation
Description: (§3) 17MB026 primary FSHD-affected patient myoblasts (obtained from the University of Rochester FSHD Biorepository) were thawed and cultured as described in Rickard et al., 2015 in primary myoblast medium. Cells (4000 per well) were seeded to a collagen-I coated 96-well plate in 100 μL primary myoblast medium. Medium was changed every other day until cells reached 80% confluence followed by a switch to 100 μL per well primary myotube medium. […] Cells were imaged in the phase contrast channel every six hours for four days and cell confluence in each image was quantified, Triplicate wells of each condition were averaged.

[4] = Acute pharmacokinetic study, plasma; assay type: in vivo, CD-1 mice; details: mouse plasma; for AUClast: 0 to 24 hours
Description: Intraperitoneal injection, which provides the drug via absorption into the mesenteric blood supply and is thus subject to hepatic first-pass metabolism, was used to approximate oral dosings total of 96 mice were utilized: 3 naive CD-1 male mice and 3 naïve CD-1 female mice were dosed per route of administration per 2 doses plus 3 naive CD-1 male mice and 3 naïve CD-1 female mice were per route of administration per dose for tissue collection. Following administration, blood, brain, and muscle samples were collected as follows; Two blood samples were collected from each mouse at 2 distinct timepoints over 24 bout post-dose to include 0.25, 0.5, 1, 2, 4, 8, and 24 hours. Blood samples were centrifuged to obtain plasma samples. For each time point, duplicate aliquots of plasma were transferred into an appropriately labeled sample tube containing a volume of buffer. The diluted plasma samples were stored at −20° C. for the first 24 hours and then transferred to −80° C. 24 hours of processing. Terminal brain and muscle samples were collected at 1 hour and 24 hours after administration. Tissue samples were temporarily put on dry ice and then stored at −20° C. for the first 24 hours and then transferred to −80° C. 24 hours of collection Plasma, brain and muscle samples were analyzed for test substance quantification using a method based on protein precipitation followed by HPLC-MS/MS analysis within optimized bioanalytical method.

[5] = tested on: 17MB026 primary FSHD-affected patient myotubes; experiment: FSHD primary patient biopsy myotube immunocytochemistry, Myosin Heavy Chain and nuclei; assay type: cell-based, human; details: 17MB026 primary myotubes, 2 nM-5 μM, 2.5 days
Description: FIG. 10 provides the workflow for assays performed with patient biopsy-derived muscle. On Day 0, patient myoblasts are passaged in a 96-well dish in primary myoblast medium (Genea BioCells). On Day 2, the medium is changed to […].
17MB026 primary FSHD-affected patient myoblasts (obtained from the University of Rochester FSHD Biorepository) were thawed and cultured as described in Rickard et al., 2015 in primary myoblast medium. Cells (6000 per well) were seeded to a collagen-I coated 96-well plate in 100 μl primary myoblast medium. Medium was changed every other day until cells reached 80% confluence followed by a switch to 100 μL per well primary myotube medium. […] Cells were fixed and analyzed after 2.5 days of myotube formation by immunocytochemistry and high-content imaging for DUX4, H3.X/Y, Myosin Heavy Chain expression and nuclei number. Five or six replicate wells were averaged per condition, […]

Caspase 3/7 = experiment: Live cell imaging of Caspase 3/7 cleavage dye fluorescence through myotube formation; assay type: cell-based, human; details: 17MB026 primary myotubes, six concentrations 10 nM-3 μM, imaged four days
Description: as §3, with “80% continence” for “80% confluence”, “myotube medium containing 1:5000 diluted Caspase 3/7 Green. Apoptosis Assay Reagent (Essen Bioscience).” for “myotube medium.”, “phase and green channels” for “phase contrast channel”, “days to quantify green intensity×area per image.” for “days and cell confluence in each image was quantified,”

[6] = IM, 10 mg/kg single dose, N = 6
[7] = IM, 50 mg/kg single dose, N = 6
[8] = IP, 10 mg/kg single dose, N = 6
[9] = IP, 50 mg/kg single dose, N = 6

Q: For `CNC(=O)c1cc(Oc2ccc(NC(=O)Nc3cc(C(C)(C)C)nn3-c3ccc4ncccc4c3)c(F)c2)ccn1` [GBC0905, Rebastinib], which “Myosin Heavy Chain expression and nuclei count, dose curve” value (Genea049 FSHD hESC-SkM; 10 nM-3 μM, four days) is on record?
A: not seen in cells treated with GBC0905 (Rebastinib) at concentrations lower than 3 μM

Q: And the “Myosin Heavy Chain expression and nuclei count” value (Genea049 FSHD hESC-SkM; 100 nM, four days of culture)?
A: these effects are not seen

Q: And the DUX4 expression (DUX4 [1]; Genea049 hESC-SkM, 100 nM, four days of culture during myotube formation)?
A: decreased DUX4 expression

Q: What about the “DUX4 expression, dose curve” value (DUX4 [1]; Genea049 hESC-SkM, six concentration points 10 nM-3 μM, four days) of the same molecule?
A: dose-dependent decreased DUX4 expression

Q: And the IC50 (DUX4 [1]; Homo sapiens, Genea049 hESC-SkM dose curve, read-out: estimated IC50 value, DUX4-suppressive effect)?
A: ~0.1 µM

Q: And the “Quantitation % of DUX4 reduction @the lowest significant [C]” value (DUX4 [2])?
A: 66.39% and 51.75% and 79.76% and 82.94%

Q: What about the “FSHD cell death measured by retained % cell confluence” value [3] of the same molecule?
A: dose-dependent rescue of FSHD cell death

Q: And the tmax ([4]; both sexes, CD-1, im, intramuscular injection, 10 or 50 mg/kg, read-out: median time to maximum concentration (Tmax))?
A: 2 to 4 h

Q: And the AUClast [4, 6]?
A: 93.54 µg·h/mL

Q: What about the “AUC∞” value [4, 6] of the same molecule?
A: 98.469 µg·h/mL

Q: And the Cmax [4, 6]?
A: 8203 ng/mL

Q: And the “MRT∞” value [4, 6]?
A: 7.83 h

Q: And the t1/2 [4, 6]?
A: 5.59 h

Q: What about the tmax [4, 6] of the same molecule?
A: 2 h

Q: And the AUClast [4, 7]?
A: 222.518 µg·h/mL

Q: And the “AUC∞” value [4, 7]?
A: 256.486 µg·h/mL

Q: And the Cmax [4, 7]?
A: 15103 ng/mL

Q: And the “MRT∞” value [4, 7]?
A: 11.8 h

Q: What about the t1/2 [4, 7] of the same molecule?
A: 8.10 h

Q: What about the tmax [4, 7] of the same molecule?
A: 4 h

Q: What about the AUClast [4, 8] of the same molecule?
A: 162.488 µg·h/mL

Q: What about the “AUC∞” value [4, 8] of the same molecule?
A: 162.568 µg·h/mL

Q: What about the Cmax [4, 8] of the same molecule?
A: 23683 ng/mL

Q: What about the “MRT∞” value [4, 8] of the same molecule?
A: 4.46 h

Q: And the t1/2 [4, 8]?
A: 2.12 h

Q: What about the tmax [4, 8] of the same molecule?
A: 2 h

Q: What about the AUClast [4, 9] of the same molecule?
A: 651.387 µg·h/mL

Q: What about the “AUC∞” value [4, 9] of the same molecule?
A: 651.534 µg·h/mL

Q: And the Cmax [4, 9]?
A: 81633 ng/mL

Q: What about the “MRT∞” value [4, 9] of the same molecule?
A: 4.73 h

Q: What about the t1/2 [4, 9] of the same molecule?
A: 1.90 h

Q: And the tmax [4, 9]?
A: 2 h

Q: What about the “median time to maximum concentration (Tmax)” value ([4]; intraperitoneal injection, 10 or 50 mg/kg) of the same molecule?
A: 2 h

Q: What about the “Myosin Heavy Chain and nuclei count” value [5] of the same molecule?
A: without reducing Myosin Heavy Chain or nuclei count

Q: What about the “Caspase 3/7 activation” value (Caspase 3/7) of the same molecule?
A: dose-dependent decrease in Caspase 3/7 activation
